Values quoted from earlier work as cited in patent US20250228918A1, “METHODS OF CONTROLLING BODY WEIGHT AND/OR ENERGY EXPENDITURE” (Yale University, priority 2022, published 2025).

Conditions: in vivo

SMILES: C[C@H]1Oc2cc(cnc2N)-c2c(nn(C)c2C#N)CN(C)C(=O)c2ccc(F)cc21 [Lorlatinib]
- brain penetration: penetrates well into brain
